The values below come from patent publication US20220251079A1, “BENZO[B][1,8]NAPHTHYRIDINE ACETIC ACID DERIVATIVES AND METHODS OF USE” (STINGTHERA, INC., priority 2019, published 2022).

The target of assay [1] is T1, hSTING-R232 (Homo sapiens, UniProt Q86WV6, H232R).
T1 construct: recombinant mouse or human STING protein (aa140-379); 6xHis-SUMO elsewhere) (cleaved yes); made in house
Description: STING Differential Scanning Fluorimetry (DSF) assay, human. Conditions: human STING R232-WT, 5 μM protein. The assay is classed as binding. A digest of the protocol:
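Purified STING C-terminal domain (aa140-379, R232), human or mouse, at 5 μM in 100 mM NaCl, 30 mM HEPES pH 7.5 with SYBR Orange, was heated at 0.5° C./min. Tm came from dF/dT; ΔTm and FC50 were derived from an 11-point 2-fold series from 300 μM, in duplicate.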
A general note: In DSF a fluorescence change marks the thermal transition of the protein.

Assay [2] addresses T2, mSTING-R232 (aa139-378) (Mus musculus, UniProt Q3TBT3).
T2 construct: mSTING-R232 (aa139-378); 6xHis-SUMO; made in house
T2 sequence (Q3TBT3 139-378): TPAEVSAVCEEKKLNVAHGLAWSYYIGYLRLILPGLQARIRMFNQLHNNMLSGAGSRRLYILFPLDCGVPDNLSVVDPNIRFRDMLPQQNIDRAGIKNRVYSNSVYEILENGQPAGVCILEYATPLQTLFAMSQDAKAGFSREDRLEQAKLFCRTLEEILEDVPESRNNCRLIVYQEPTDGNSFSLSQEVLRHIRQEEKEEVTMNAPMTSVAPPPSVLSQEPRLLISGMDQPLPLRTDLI
Description: STING Differential Scanning Fluorimetry (DSF) assay, mouse. Conditions: 5 μM protein. It counts as binding. The protocol: A STING DSF assay was performed to determine protein thermostability shift in response to small molecule ligand binding. A STING thermostability shift assay based on differential scanning fluorimetry was used to measure (1) the net shift in melting temperature (ΔTm)between the apo and ligand-bound states of the STING protein and (2) the concentration of the thermal denaturation transition (FC50) as a surrogate measure of binding affinity (Kd). Briefly, recombinant mouse or human STING protein (aa140-379) comprising the C-terminal binding domain (R232-WT) were purified by affinity chromatography and further processed to remove the purification tag, followed by gel filtration to achieve purity >95%. Protein in assay buffer was transferred to a 384 well plate and incubated with the hydrophobic fluorescent dye SYBR Orange. A temperature ramp was applied to the plate and the resulting dye fluorescence was plotted as a function of temperature. The first derivative of this function (dF/dT) was then used to extrapolate the melting temperature of the protein at various concentrations of compound and determine the thermal denaturation profile of a protein/compound complex.
2. 5 μM purified Target STING Protein
4. Buffer: 100 mM NaCl, 30 mM HEPES, pH 7.5
5. Thermal Ramp: 0.5° C./min
7. 11 point, 2 fold dilution, duplicate, 300 μM high concentrations

Assay [3] deals with T3, STING protein (Homo sapiens, UniProt Q86WV6, H232R).
T3 construct: host or cells: THP-1 dual reporter cells, TMEM173 modified from HAQ to R232 (THP1-dual-KI R232)
T3 sequence (Q86WV6 whole entry H232R): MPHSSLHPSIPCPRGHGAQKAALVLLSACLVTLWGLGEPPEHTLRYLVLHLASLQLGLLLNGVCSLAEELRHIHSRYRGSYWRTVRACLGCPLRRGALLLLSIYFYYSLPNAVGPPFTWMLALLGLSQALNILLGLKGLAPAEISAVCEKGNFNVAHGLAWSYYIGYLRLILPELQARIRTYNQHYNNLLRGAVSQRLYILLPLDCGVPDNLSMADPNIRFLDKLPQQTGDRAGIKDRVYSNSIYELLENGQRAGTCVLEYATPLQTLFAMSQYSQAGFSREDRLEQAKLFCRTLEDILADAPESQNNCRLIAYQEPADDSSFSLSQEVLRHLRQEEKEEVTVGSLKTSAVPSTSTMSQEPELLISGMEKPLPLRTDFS
Kind of assay: Cell based reporter assay of IRF activation (THP1-dual-KI R232, IRF luciferase). Conditions: THP-1; read-out: THP1-dual-KI R232_IRF(Luciferase)_Activity Maximum measured (%). Put shortly:
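THP-1 monocytes stably carried an ISG54/5×ISRE firefly luciferase IRF reporter, with TMEM173 knock-in H71R A230G Q293R (R232 variant), and there was no PMA pre-activation. Compounds were tested at 8 points, 2-fold, in duplicate from 150 µM. Cell Titer Glo was applied after supernatant removal.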

The target of assay [4] is T4, human STING protein (140-379) (Homo sapiens, UniProt Q86WV6, H232R).
T4 construct: 6XHIS-SUMO-hSTING (140-379); made in house; host or cells: BL-21(DE3) E. coli, pET vector
T4 sequence (Q86WV6 140-379 H232R): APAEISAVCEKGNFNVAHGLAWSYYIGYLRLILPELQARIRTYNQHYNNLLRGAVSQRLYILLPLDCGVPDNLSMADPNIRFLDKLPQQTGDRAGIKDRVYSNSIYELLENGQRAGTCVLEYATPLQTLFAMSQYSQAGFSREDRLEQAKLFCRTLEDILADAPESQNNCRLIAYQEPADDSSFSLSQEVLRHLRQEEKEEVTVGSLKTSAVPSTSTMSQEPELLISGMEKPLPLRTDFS
Kind of assay: Radiometric filtration binding competition assay (WT_FBA_HIS-SUMO-hSWAT). Conditions: read-out: WT-hSWAT IC50. Put shortly:
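Compounds (2-fold dilutions, 8 points, top 300 μM) were preincubated for 30 min with 0.5 μM recombinant C-terminal STING domain, human residues 140-379 or mouse residues 139-328, His-SUMO tagged. Displacement of a tritium-labelled probe was read by filtration and scintillation counting. Dose-response fits gave IC50, then Ki.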

In assay [5] the target is T5, mouse STING protein (139-328) (Mus musculus, UniProt Q3TBT3).
T5 construct: mouse STING protein (139-328); made in house
T5 sequence (Q3TBT3 139-328): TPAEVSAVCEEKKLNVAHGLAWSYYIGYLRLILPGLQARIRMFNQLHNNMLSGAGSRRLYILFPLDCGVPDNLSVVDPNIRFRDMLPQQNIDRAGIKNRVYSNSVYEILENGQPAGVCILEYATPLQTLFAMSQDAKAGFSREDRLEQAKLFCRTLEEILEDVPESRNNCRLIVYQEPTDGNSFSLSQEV
Description: Radiometric filtration binding competition assay (MOUSE_FBA_HIS-SUMO-mSWAT). The settings on record: read-out: WT-mSWAT IC50. The protocol: A radiometric filtration binding competition assay was performed to quantify the binding affinity of compounds of the present application for the human or mouse STING protein, or associated HAQ human isoform. The competition format filtration binding assay detects the ability of small molecule compounds from binding to and inhibiting the subsequent binding of a tritiated [H3] […] The resulting dose response was fit by non-linear regression to determine an IC50 value, from which a Ki value for each compound was extrapolated.
Briefly, the recombinant C-terminal ligand binding domain of the human STING protein (140-379) or mouse STING protein (139-328) [0.5 μM] was incubated in the presence of a compound of the present application (8 point, 2 fold dilution starting at 300 μM) for 30 min or under control conditions. […] The resulting complexes were then filtered, dried, and scintillation fluid was added and the remaining radio signal was measured to determine the degree of compound ligand inhibition. This assay format was optimized for both the WT and HAQ isoforms of the human protein and the mouse orthologue protein.
Parameters optimized: • a. Form of protein: 6×HIS-SUMO tag or untagged • b. Concentration of target protein: Minimum concentration that achieved >80 max signal • c. Assay DMSO concentration: 10%-0.1% • d. […]

Usually IC50 stands for the concentration that inhibits the measured activity by half.

T1 sequence (Q86WV6 140-379 H232R): as the sequence (Q86WV6 140-379 H232R) above

For the compound `CCOc1c(Cl)ccc2c(=O)c3ccc(C)nc3n(CC(=O)O)c12` [Compound 2], the “WT_DSF_hSWAT Tm Shift (° C.)” value in assay [1] is recorded as “C (“C” = 2-7° C.)”. Besides, the “MOUSE DSF_6xHIS-SUMO Tm Shift (° C.)” value in assay [2] is recorded as “C (“C” = 5-15° C.)”. Also, the Emax in assay [3] was above 50%. Besides, the IC50 in assay [4] and in assay [5] was 100 to 300 µM in each case.
For `CCOc1c(Cl)ccc2c(=O)c3ccc(C(C)C)nc3n(CC(=O)O)c12` [Compound 3], in assay [1], the “WT_DSF_hSWAT Tm Shift (° C.)” value is on record as “D (“D” > 7° C.)”. In addition, the “MOUSE DSF_6xHIS-SUMO Tm Shift (° C.)” value in assay [2] is “C (“C” = 5-15° C.)”. Moreover, the Emax in assay [3] was above 50%. Further, the half-maximal inhibitory concentration (IC50) in assay [4] and in assay [5] was 20 to 100 µM in each case.
In the case of `CCOc1c(Cl)ccc2c(=O)c3ccc(N(C)CCn4ccnc4)nc3n(CC(=O)O)c12` [Compound 72, sodium 2-(8-chloro-9-ethoxy-2-{[2-(imidazole-1-yl)ethyl](methyl)amino}-5-oxobenzo[b]1,8-naphthyridin-10-yl)acetate], in assay [1], the “WT_DSF_hSWAT Tm Shift (° C.)” value is reported as “D (“D” > 7° C.)”. For the same compound, the Emax in assay [3] lay in the range of 5 to 25%. Besides, the half-maximal inhibitory concentration (IC50) in assay [4] is 100 to 300 µM.
The matching figures for `CSc1c(Cl)ccc2c(=O)c3ccc(N(C)c4ccccc4)nc3n(CC(=O)O)c12` [Compound 73, sodium 2-(8-chloro-2-(methyl(phenyl)amino)-9-(methylthio)-5-oxobenzo[b][1,8]naphthyridin-10(5H)-yl)acetate]: “D (“D” > 7° C.)”, above 50% and below 20 µM.
With `COCCN(c1ccc2c(=O)c3ccc(Cl)c(SC)c3n(CC(=O)O)c2n1)[C@H]1C[C@@H](OC)C1` [Compound 74, sodium 2-(8-chloro-2-(((1s,3s)-3-methoxycyclobutyl)(2-methoxyethyl)amino)-9-(methylthio)-5-oxobenzo[b][1,8]naphthyridin-10(5H)-yl)acetate], the “WT_DSF_hSWAT Tm Shift (° C.)” value in assay [1] is listed as “D (“D” > 7° C.)”. Besides, the Emax in assay [3] is above 50%. Further, the IC50 in assay [4] is 100 to 300 µM.
The matching figures for `COCCN(C)c1nc2c(cc1Cl)c(=O)c1ccc(Cl)c(SC)c1n2CC(=O)O` [Compound 75, sodium 2-(3,8-dichloro-2-((2-methoxyethyl)(methyl)amino)-9-(methylthio)-5-oxobenzo[b][1,8]naphthyridin-10(5H)-yl)acetate]: “D (“D” > 7° C.)”, above 50% and 20 to 100 µM.
The matching figures for `CO[C@H]1C[C@@H](N(C)c2nc3c(cc2Cl)c(=O)c2ccc(Cl)c(SC)c2n3CC(=O)O)C1` [Compound 77, 2-(3,8-dichloro-2-(((1s,3s)-3-methoxycyclobutyl)(methyl)amino)-9-(methylthio)-5-oxobenzo[b][1,8]naphthyridin-10(5H)-yl)acetic acid]: “D (“D” > 7° C.)”, above 50% and below 20 µM.
Turning to `C=Cc1c(Cl)ccc2c(=O)c3ccc(N(C)C)nc3n(CC(=O)O)c12` [Compound 78, 2-(8-chloro-2-(dimethylamino)-5-oxo-9-vinylbenzo[b][1,8]naphthyridin-10(5H)-yl)acetic acid], the “WT_DSF_hSWAT Tm Shift (° C.)” value in assay [1] is reported as “D (“D” > 7° C.)”. Besides, the Emax in assay [3] was above 50%. In addition, the IC50 in assay [4] lay in the range of 20 to 100 µM.
Taken in the same sequence, the figures for `CN(C)c1ccc2c(=O)c3ccc(Cl)c(-c4ccccc4)c3n(CC(=O)O)c2n1` [Compound 79, 2-(8-chloro-2-(dimethylamino)-5-oxo-9-phenylbenzo[b][1,8]naphthyridin-10(5H)-yl)acetic acid] were “D (“D” > 7° C.)”, above 50% and 20 to 100 µM.
Taken in the same sequence, the figures for `CN(C)c1c(Cl)ccc2c(=O)c3ccc(N(C)CCn4ccnc4)nc3n(CC(=O)O)c12` [Compound 80, sodium 2-[8-chloro-9-(dimethylamino)-2-{[2-(imidazole-1-yl)ethyl](methyl)amino}-5-oxobenzo[b]1,8-naphthyridin-10-yl]acetate] were “D (“D” > 7° C.)”, above 50% and 20 to 100 µM.
The matching figures for `CSc1c(Cl)ccc2c(=O)c3ccc(N(C)CCn4ccnc4C)nc3n(CC(=O)O)c12` [Compound 81, sodium 2-(8-chloro-2-{methyl[2-(2-methylimidazol-1-yl)ethyl]amino}-9-(methylsulfanyl)-5-oxobenzo[b]1,8-naphthyridin-10-yl)acetate]: “D (“D” > 7° C.)”, 5 to 25% and 20 to 100 µM.
For the compound `Cc1nccn1CCN(C)c1ccc2c(=O)c3ccc(Cl)c(N(C)C)c3n(CC(=O)O)c2n1` [Compound 82, sodium 2-[8-chloro-9-(dimethylamino)-2-{methyl[2-(2-methylimidazol-1-yl)ethyl]amino}-5-oxobenzo[b]1,8-naphthyridin-10-yl]acetate], the “WT_DSF_hSWAT Tm Shift (° C.)” value in assay [1] was “D (“D” > 7° C.)”. For the same compound, the Emax in assay [3] lay within 5 to 25%. Besides, the IC50 in assay [4] was in the range of 100 to 300 µM.
